In this experiment the test system is L1210 leukemia ip in BDF1 mice, survival T/C. Nature of the experiment: NCI In Vivo Anticancer Drug Screen. Data for tumor model L1210 Leukemia (intraperitoneal) in B6D2F1 (BDF1) mice. The settings on record: endpoint: mean survival time, higher = longer survival. In a few lines:
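Transplantable tumor model; survival measured in treated vs vehicle control mice. Value = treated/control.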

The mark [1] stands for this setting: dose: 100.0 mg/kg/injection, schedule: Q04DX002 (ip), vehicle: Klucel (hydroxypropylcellulose) (HPC).
Setting [2] is: dose: 200.0 mg/kg/injection, schedule: Q04DX002 (ip), vehicle: Klucel (hydroxypropylcellulose) (HPC).
Where [3] appears, read: dose: 400.0 mg/kg/injection, schedule: Q04DX002 (ip), vehicle: Klucel (hydroxypropylcellulose) (HPC).
Where [4] appears, read: dose: 75.0 mg/kg/injection, schedule: Q01DX001 (ip), vehicle: saline.
The mark [5] stands for this setting: dose: 150.0 mg/kg/injection, schedule: Q01DX001 (ip), vehicle: saline.
The mark [6] stands for this setting: dose: 100.0 mg/kg/injection, schedule: Q01DX001 (ip), vehicle: saline.
The mark [7] stands for this setting: dose: 200.0 mg/kg/injection, schedule: Q01DX001 (ip), vehicle: saline.
The mark [8] stands for this setting: dose: 400.0 mg/kg/injection, schedule: Q01DX001 (ip), vehicle: saline.
Setting [9] is: dose: 100.0 mg/kg/injection, schedule: Q01DX009 (ip), vehicle: saline with Tween-80.
Where [10] appears, read: dose: 100.0 mg/kg/injection, schedule: Q04DX003 (ip), vehicle: saline with Tween-80.
The mark [11] stands for this setting: dose: 200.0 mg/kg/injection, schedule: Q01DX009 (ip), vehicle: saline with Tween-80.
Where [12] appears, read: dose: 200.0 mg/kg/injection, schedule: Q04DX003 (ip), vehicle: saline with Tween-80.
Setting [13] is: dose: 400.0 mg/kg/injection, schedule: Q01DX009 (ip), vehicle: saline with Tween-80.
Setting [14] is: dose: 400.0 mg/kg/injection, schedule: Q04DX003 (ip), vehicle: saline with Tween-80.

Several values for one entry are separate records, joined by “and”; a condition that tells them apart may be missing. Equal values may be shown once. Inconclusive results and toxic doses are left out. Peptide text beside a SMILES is read from it. * marks the point of attachment. Cbz = O=C(OCc1ccccc1)*

Regarding `CC(=O)c1cccc(OC(=O)Nc2ccc(C)cc2)c1`, the T/C is, setting by setting: (dose: 100.0 mg/kg/injection, schedule: Q01DX001 (ip), vehicle: gum acacia) 89 % of control; (dose: 100.0 mg/kg/injection, schedule: Q01DX009 (ip), vehicle: gum acacia) 95 % of control and 88 % of control; (dose: 100.0 mg/kg/injection, schedule: Q04DX003 (ip), vehicle: gum acacia) 98 % of control and 100 % of control; (dose: 200.0 mg/kg/injection, schedule: Q01DX001 (ip), vehicle: gum acacia) 100 % of control; (dose: 200.0 mg/kg/injection, schedule: Q01DX009 (ip), vehicle: gum acacia) 98 % of control and 105 % of control; (dose: 200.0 mg/kg/injection, schedule: Q04DX003 (ip), vehicle: gum acacia) 93 % of control and 90 % of control. The T/C (dose: 400.0 mg/kg/injection, schedule: Q01DX001 (ip), vehicle: gum acacia) was 90 % of control; the T/C (dose: 400.0 mg/kg/injection, schedule: Q01DX009 (ip), vehicle: gum acacia) was 98 % of control and 109 % of control; the T/C (dose: 400.0 mg/kg/injection, schedule: Q04DX003 (ip), vehicle: gum acacia) was 97 % of control and 103 % of control.
For `CCC(CC)(Cc1ccccc1)C(=O)NC(=O)NOC`, the T/C (dose: 100.0 mg/kg/injection, schedule: Q01DX Z (ip), vehicle: methylcellulose (MC)) was 98 % of control and the T/C (dose: 200.0 mg/kg/injection, schedule: Q01DX Z (ip), vehicle: methylcellulose (MC)) was 96 % of control.
For the molecule `O=C(Nc1ccc(Br)cc1)C(Br)C(Br)c1ccccc1` (stereo unspecified), the T/C under setting [1] is 98 % of control, the T/C under setting [2] was 88 % of control and the T/C under setting [3] is 98 % of control.
`O=C(O)c1c(Cl)c(Cl)c(Cl)c(Cl)c1C(=O)c1ccccc1`: the T/C runs as follows: under setting [4], 109 % of control; under setting [5], 113 % of control; (dose: 300.0 mg/kg/injection, schedule: Q01DX001 (ip), vehicle: saline) 101 % of control.
Regarding `CC1CCCCN1Cc1ccccc1COC(=O)c1ccc(Br)cc1` (stereo unspecified), the T/C was 101 % of control under setting [1], 92 % of control under setting [2] and 96 % of control under setting [3].
`COC(=O)c1ccc(N(C)CCC(=O)COC(C)=O)cc1`: the T/C is, setting by setting: under setting [6], 103 % of control; under setting [7], 97 % of control; under setting [8], 95 % of control.
Consider `CC(=O)n1cc(C2CC(=O)OC3=C2CC(=O)C(C)(C)C3)c2ccccc21` (stereo unspecified), for which the T/C was 100 % of control under setting [9]; 95 % of control under setting [10]; 96 % of control under setting [11]; 101 % of control under setting [12]; 91 % of control under setting [13]; 101 % of control under setting [14].
With `COC(=O)C(CC(C)C)NC(=O)C(Cc1ccccc1)NC(=O)C(CO)NC(=O)OCc1ccccc1` (stereo not drawn) (Cbz-Ser-Phe-Leu-OMe; configuration not given here), the T/C reads like this: under setting [6], 93 % of control; under setting [7], 93 % of control; under setting [8], 94 % of control.
Regarding `CCOC(=O)CCc1ccc(N=NN(C)C)cc1`, the T/C (dose: 125.0 mg/kg/injection, schedule: Q01DX009 (ip), vehicle: saline) was 115 % of control.
For the molecule `COC(=O)/C(=C\c1ccccc1)CNC(C)(C)C`, the T/C under setting [6] was 100 % of control and the T/C under setting [7] was 97 % of control.
Turning to `O/C(=C/C(=S)S)c1cccs1`, the T/C is 103 % of control (dose: 0.78 mg/kg/injection, schedule: Q01DX009 (ip), vehicle: water); 105 % of control (dose: 1.56 mg/kg/injection, schedule: Q01DX009 (ip), vehicle: water); 102 % of control (dose: 3.12 mg/kg/injection, schedule: Q01DX009 (ip), vehicle: water); 95 % of control (dose: 6.25 mg/kg/injection, schedule: Q01DX009 (ip), vehicle: water); 102 % of control (dose: 12.5 mg/kg/injection, schedule: Q04DX003 (ip), vehicle: water); 94 % of control (dose: 25.0 mg/kg/injection, schedule: Q04DX003 (ip), vehicle: water). Further, the T/C (dose: 50.0 mg/kg/injection, schedule: Q04DX003 (ip), vehicle: water) was 100 % of control.
As for `COc1cc2c3c(c1O)-c1c(ccc(OC)c1OC)CC3N(C)CC2` (stereo unspecified), the T/C runs as follows: (dose: 100.0 mg/kg/injection, schedule: Q01DX001 (ip), vehicle: saline with Tween-80) 103 % of control; (dose: 200.0 mg/kg/injection, schedule: Q01DX001 (ip), vehicle: saline with Tween-80) 102 % of control; (dose: 400.0 mg/kg/injection, schedule: Q01DX001 (ip), vehicle: saline with Tween-80) 102 % of control.
With `CC[N+](CC)(CC)CC(=O)NCc1ccco1`, the T/C is, setting by setting: (dose: 50.0 mg/kg/injection, schedule: Q01DX001 (ip), vehicle: carboxymethylcellulose (CMC)) 105 % of control; (dose: 50.0 mg/kg/injection, schedule: Q01DX009 (ip), vehicle: carboxymethylcellulose (CMC)) 103 % of control; (dose: 50.0 mg/kg/injection, schedule: Q04DX003 (ip), vehicle: carboxymethylcellulose (CMC)) 94 % of control; (dose: 100.0 mg/kg/injection, schedule: Q01DX001 (ip), vehicle: carboxymethylcellulose (CMC)) 99 % of control; (dose: 100.0 mg/kg/injection, schedule: Q01DX009 (ip), vehicle: carboxymethylcellulose (CMC)) 103 % of control and 104 % of control; (dose: 100.0 mg/kg/injection, schedule: Q04DX002 (ip), vehicle: carboxymethylcellulose (CMC)) 95 % of control and 103 % of control. Further, the T/C is, setting by setting: (dose: 100.0 mg/kg/injection, schedule: Q04DX003 (ip), vehicle: carboxymethylcellulose (CMC)) 102 % of control; (dose: 200.0 mg/kg/injection, schedule: Q01DX001 (ip), vehicle: carboxymethylcellulose (CMC)) 99 % of control; (dose: 200.0 mg/kg/injection, schedule: Q01DX009 (ip), vehicle: carboxymethylcellulose (CMC)) 101 % of control and 90 % of control; (dose: 200.0 mg/kg/injection, schedule: Q04DX002 (ip), vehicle: carboxymethylcellulose (CMC)) 97 % of control and 92 % of control; (dose: 200.0 mg/kg/injection, schedule: Q04DX003 (ip), vehicle: carboxymethylcellulose (CMC)) 102 % of control; (dose: 400.0 mg/kg/injection, schedule: Q04DX002 (ip), vehicle: carboxymethylcellulose (CMC)) 90 % of control.
On to `CC1(C)OC2C(CO)OC(n3cnc4c(=O)[nH]cnc43)C2O1` (stereo unspecified), for which the T/C under setting [4] is 102 % of control and the T/C under setting [5] is 92 % of control.
With `O=NN(CCCl)C(=O)NC1CCC(Br)CC1` (stereo unspecified), the T/C reads like this: (dose: 10.0 mg/kg/injection, schedule: Q01DX001 (ip), vehicle: saline with Tween-80) 122 % of control; (dose: 22.0 mg/kg/injection, schedule: Q01DX001 (ip), vehicle: saline with Tween-80) 150 % of control; (dose: 33.5 mg/kg/injection, schedule: Q01DX001 (ip), vehicle: saline with Tween-80) 197 % of control; (dose: 50.0 mg/kg/injection, schedule: Q01DX001 (ip), vehicle: saline with Tween-80) 455 % of control; (dose: 75.0 mg/kg/injection, schedule: Q01DX001 (ip), vehicle: saline with Tween-80) 455 % of control; (dose: 112.0 mg/kg/injection, schedule: Q01DX001 (ip), vehicle: saline with Tween-80) 420 % of control. Also, the T/C (dose: 252.0 mg/kg/injection, schedule: Q01DX001 (ip), vehicle: saline with Tween-80) is 208 % of control.
For the molecule `Cc1ccccc1[As](c1ccccc1C)c1ccccc1C`, the T/C under setting [10] is 87 % of control.
For the molecule `COc1cc(/C=N/NC(=O)c2ccccc2)cc(OC)c1OC`, the T/C under setting [9] was 97 % of control; the T/C under setting [10] was 90 % of control; the T/C under setting [11] is 92 % of control; the T/C under setting [12] is 91 % of control; the T/C under setting [13] is 97 % of control; the T/C under setting [14] is 90 % of control.
Consider `CC(=O)Oc1ccc(/C=N/NC(N)=S)nc1`, for which the T/C runs as follows: (dose: 24.0 mg/kg/injection, schedule: Q03HX024 (ip), vehicle: saline with Tween-80) 212 % of control; (dose: 36.0 mg/kg/injection, schedule: Q03HX024 (ip), vehicle: saline with Tween-80) 339 % of control.
As for `C(=C1c2ccccc2-c2ccccc21)c1ccccc1`, the T/C was 100 % of control under setting [9]; 100 % of control under setting [10]; 95 % of control under setting [11]; 100 % of control under setting [12]; 91 % of control under setting [13]; 92 % of control under setting [14].
